Data from US20200087340A1, “LIF/LIFR ANTAGONIST IN ONCOLOGY AND NONMALIGNANT DISEASES” (Evestra, Inc., priority 2018, published 2020).

Experiments:
A549/ATCC = test: NCI-60 screening, Non-Small Cell Lung Cancer; assay type: cell-based, human
NCI-H460 = test: NCI-60 screening, Non-Small Cell Lung Cancer; assay type: cell-based, human
MCF7 = test: NCI-60 screening, Breast Cancer; assay type: cell-based, human
A498 = test: NCI-60 screening, Renal Cancer; assay type: cell-based, human
OVCAR-8 = test: NCI-60 screening, Ovarian Cancer; assay type: cell-based, human
SMAD = test: Phosphorylation of SMAD; assay type: cell-based; conditions: thorough blocking TGF-beta
786-0 = test: NCI-60 screening, Renal Cancer; assay type: cell-based, human
UO-31 = test: NCI-60 screening, Renal Cancer; assay type: cell-based, human
HCT-15 = test: NCI-60 screening, Colon Cancer; assay type: cell-based, human
IGROV1 = test: NCI-60 screening, Ovarian Cancer; assay type: cell-based, human
Method: Additional four, 10-fold or ½ log serial dilutions are made to provide a total of five drug concentrations plus control.
For adherent cells, the assay is terminated by the addition of cold TCA. Cells are fixed in situ by the gentle addition of 50 μl of cold 50% (w/v) TCA (final concentration, 10% TCA) and incubated for 60 minutes at 4° C. The supernatant is discarded, and the plates are washed five times with tap water and air dried. Sulforhodamine B (SRB) solution (100 μl) at 0.4% (w/v) in 1% acetic acid is added to each well, and plates are incubated for 10 minutes at room temperature. After staining, unbound dye is removed by washing five times with 1% acetic acid and the plates are air dried. […] Using the seven absorbance measurements [time zero, (Tz), control growth, (C), and test growth in the presence of drug at the five concentration levels (Ti)], the percentage growth is calculated at each of the drug concentrations levels. […]
Three dose response parameters are calculated for each experimental agent. […] The drug concentration resulting in total growth inhibition (TGI) is calculated from Ti=Tz. […] Values are calculated for each of these three parameters if the level of activity is reached; however, if the effect is not reached or is exceeded, the value for that parameter is expressed as greater or less than the maximum or minimum concentration tested.

[1] = system: human umbilical vein endothelial cells (HUVEC); test: Matrigel in vitro HUVECs tube formation assay (angiogenesis); assay type: cell-based; conditions: 1 μM concentration, all measured time points
Method: Matrigel in vitro HUVECs tube formation assay: The tube formation assay was performed using 12-well plate coated with 100 μL Matrigel basement membrane matrix (BD Bioscience) per well and polymerized at 37° C. for 30 min. Human umbilical vascular endothelial cells (HUVECs) suspended in M199 medium containing 2% FBS were plated on the Matrigel at a density of 2×10^5 cells/well. […] After 8 h, the Matrigel-induced morphological changes were photographed and the extent of capillary tube formation was evaluated by measuring the total tube length per field.

[2] = system: IGROV1 (Ovarian) Xenograft; test: Tumor xenograft study, IGROV1; assay type: in vivo, mice
Method: Uniform suspensions of human breast cancer MDA-MB-231 and human ovarian cancer IGROV1 cells (2×10^6) in 100 μL (0.02 carboxymethyl cellulose in phosphate buffered saline) were injected subcutaneously into the right and left flanks of 4- to 5-week-old female athymic nude mice (Charles River Laboratories). After 10 days, when the tumor […] reaches 100 mm^3, the mice were randomly allocated to 3 groups of each containing 6 animals. […] All drug was suspended in PBS followed by sonication (15 seconds with an intermittent interval of 5 seconds) for 1 minute. Tumors were allowed to reach palpability before drug intervention. Tumor size was measured every 3 days using digital Vernier Calipers and tumor volume was calculated using the ellipsoid formula [D×(d2)]/2, where D is the large diameter of the tumor and d represents the small diameter. On day 31, the mice were euthanized and tumors were harvested for protein and gene expression studies. […] FIG. 6B depicts a graph of tumor volume vs. time for the administration of EC300 at 2.5 mg/kg twice weekly in the MDA-MB-231 (TNBC) Xenograft. […] FIG. 7 depicts a graph of tumor volume vs. time for the administration of EC300 at 5 mg/kg 5 days per week in the IGROV1 (Ovarian) Xenograft. […] STAT3 phosphorylation is reduced in tumors that underwent treatment compared to control which is an indication of LIF downstream target.

OVCAR-4 = test: NCI-60 screening, Ovarian Cancer; assay type: cell-based, human
MOLT-4 = test: NCI-60 screening, Leukemia; assay type: cell-based, human
RPMI-8226 = test: NCI-60 screening, Leukemia; assay type: cell-based, human
T-47D = test: NCI-60 screening, Breast Cancer; assay type: cell-based, human
HL-60(TB) = test: NCI-60 screening, Leukemia; assay type: cell-based, human
RXF 393 = test: NCI-60 screening, Renal Cancer; assay type: cell-based, human
[3] = system: various cancer cells lines; test: Cytotoxicity assays in various cancer cell lines; assay type: cell-based
MDA-MB-231 ATCC = test: NCI-60 screening, Breast Cancer; assay type: cell-based, human

SMILES: C#CC(F)(F)[C@]1(O)CCC2C3CCC4=CC(=O)CCC4=C3C(c3ccc(C4CC4)cc3)C[C@@]21C (stereo partly drawn) [EC330, 17α-(1,1-difluoro-2-propyn-1-yl)-17β-hydroxy-11β-[4-p-(cyclopropyl)phenyl]estra-4,9-dien-3-one]
- TGI (log10TGI) (A549/ATCC): −4.61
- TGI (log10TGI) (NCI-H460): −4.80
- TGI (log10TGI) (MCF7): −4.96
- TGI (log10TGI) (A498): −6.01
- TGI (log10TGI) (OVCAR-8): −4.43
- phosphorylation of SMAD (SMAD): indirectly diminish the phosphorylation of SMAD
- TGI (log10TGI) (786-0): <−8.00
- TGI (log10TGI) (UO-31): <−8.00
- TGI (log10TGI) (HCT-15): >−4.00
- TGI (log10TGI) (IGROV1): <−8.00
- tube formation [1]: complete abrogation of tube formation
- antitumor activity ([2]; 5 mg/kg (5 days per week), 4 weeks, IGROV1 xenograft): potent antitumor activity
- apoptosis in xenograft tumors ([2]; IGR-OV1 ovarian cancer xenograft tumors): induced apoptosis dose dependently
- tumor growth ([2]; ovarian cancer model): significantly reduced
- STAT3 phosphorylation in tumors ([2]; treated compared to control): reduced
- TGI (log10TGI) (OVCAR-4): >−4.00
- TGI (log10TGI) (MOLT-4): −5.30
- TGI (log10TGI) (RPMI-8226): −6.24
- TGI (log10TGI) (T-47D): −5.00
- TGI (log10TGI) (HL-60(TB)): <−8.00
- TGI (log10TGI) (RXF 393): −5.09
- cytotoxicity (IC50's) in cytotoxicity assays [3]: low nanomolar
- TGI (log10TGI) (MDA-MB-231 ATCC): −5.46
